The numbers were not newly measured in patent publication EP2502493B1, “Novel alpha-galactosidases” (Velico Medical, Inc., priority 2005, dated 2007), which cites them from elsewhere.

The series relates to α-galactosidase from the marine bacterium Pseudoalteromonas spp. (KMM 701). As to conditions: isolated enzyme preparation, purified to 9.8U/mg; monosaccharide substrate pNP-Gal; read-out: apparent Km for pNP-Gal.

In the case of `O=[N+]([O-])c1ccc(O[C@H]2O[C@H](CO)[C@H](O)[C@H](O)[C@H]2O)cc1` [pNP-Gal, p-nitrophenyl α-D-Gal], the Km (usually the concentration of substrate that gives half-maximal velocity) is 290 µM.
